This is an account of results in patent US9936701B2, “Herbicidal compounds” (Syngenta Participations AG, priority 2013, dated 2018).

The test system of data set [1] is a variety of test species. Put plainly: Post-emergence herbicidal activity (glasshouse, sprayed after 8 days cultivation, evaluated after 13 days). Format: in vivo. Details: key: 5=total damage to plant; 0=no damage to plant. Particulars: rate 1000 g/Ha, scale 0-5. The gist of the method:
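Pot-grown plants, 8 days after sowing, were sprayed with compound formulated in acetone/water (50:50) with 0.5% Tween 20. Glasshouse conditions 24/16° C day/night, 14 h light, 65% humidity; damage scored after 13 days on a 0 (none) to 5 (total) scale.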

In data set [2] the test system is a variety of test species. The experiment in a line: Pre-emergence herbicidal activity (glasshouse, sprayed one day after sowing, evaluated after 13 days). Format: in vivo. Details: key: 5=total damage to plant; 0=no damage to plant. Particulars: application pre-emergence, rate 1000 g/Ha, scale 0-5. The gist of the method: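 Compounds are applied pre-emergence as an aqueous spray, formulated in 50:50 acetone/water containing 0.5% Tween 20, to pots sown one day earlier. Plants grow in a controlled glasshouse and are scored 13 days later for damage from 0 to 5.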

In turn, `CC1=C(Cl)C(=O)N(c2cc(C(C)(C)C)on2)C1OC(=O)OCC(C)C` (centres unmarked) [A80] registered a melting point of 84 to 88 °C. Moreover, in data set [1], the “ABUTH (Abutilon theophrasti) damage score, application post-emergence” value (“ABUTH … application post-emergence” for short) is reported as 5; the “ALOMY (Alopecurus myosuroides) damage score, application post-emergence” value (“ALOMY … application post-emergence” for short) was 5; the “AMARE (Amaranthus retroflexus) damage score, application post-emergence” value (shortened to “AMARE … application post-emergence”) was determined as 5; the “ECHCG (Echinochloa crus-galli) damage score, application post-emergence” value (“ECHCG … application post-emergence” below) is 5. In data set [1], the “SETFA (Setaria faberi) damage score, application post-emergence” value (from here on “SETFA (Setaria faberi) damage score”) came out at 5 and the “ZEAMX (Zea mays) damage score, application post-emergence” value (shortened to “ZEAMX (Zea mays) damage score”) is listed as 3. For the same compound, in data set [2], the “Pre-emergence herbicidal damage score, ABUTH” value came to 5; the “Pre-emergence herbicidal damage score, ALOMY” value amounted to 4; the “Pre-emergence herbicidal damage score, AMARE” value is 5; the “Pre-emergence herbicidal damage score, ECHCG” value is 5. Moreover, in data set [2], the “Pre-emergence herbicidal damage score, SETFA” value was 5 and the “Pre-emergence herbicidal damage score, ZEAMX” value came to 3.
For `CC1=C(Cl)C(=O)N(c2cc(C(C)(C)C)on2)C1OC(=O)Oc1ccccc1` (centres unmarked) [A84], the melting point was 113 to 127 °C. In data set [1], the “ABUTH … application post-emergence” value was determined as 5; the “ALOMY … application post-emergence” value is recorded as 5; the “AMARE … application post-emergence” value came out at 5; the “ECHCG … application post-emergence” value was found to be 5. Further, in data set [1], the “SETFA (Setaria faberi) damage score” value was 5 and the “ZEAMX (Zea mays) damage score” value is recorded as 3. Further, in data set [2], the “Pre-emergence herbicidal damage score, ABUTH” value is on record as 5; the “Pre-emergence herbicidal damage score, ALOMY” value amounted to 4; the “Pre-emergence herbicidal damage score, AMARE” value was 5; the “Pre-emergence herbicidal damage score, ECHCG” value was determined as 5. In data set [2], the “Pre-emergence herbicidal damage score, SETFA” value is reported as 5 and the “Pre-emergence herbicidal damage score, ZEAMX” value came to 3.
The compound `CC(=O)OC1C(C)=C(Cl)C(=O)N1c1noc(C(C)(C)C)c1C#N` (centres unmarked) [A94, [1-(5-tert-butyl-4-cyano-isoxazol-3-yl)-4-chloro-3-methyl-5-oxo-2H-pyrrol-2-yl]acetate] gave a melting point of 130 to 132 °C. For the same compound, in data set [1], the “ABUTH … application post-emergence” value is given as 5; the “ALOMY … application post-emergence” value worked out at 5; the “AMARE … application post-emergence” value is 5; the “ECHCG … application post-emergence” value came to 5. In data set [1], the “SETFA (Setaria faberi) damage score” value was 5 and the “ZEAMX (Zea mays) damage score” value came out at 4. Moreover, in data set [2], the “Pre-emergence herbicidal damage score, ABUTH” value came out at 5; the “Pre-emergence herbicidal damage score, ALOMY” value is reported as 4; the “Pre-emergence herbicidal damage score, AMARE” value is listed as 5; the “Pre-emergence herbicidal damage score, ECHCG” value amounted to 5. In data set [2], the “Pre-emergence herbicidal damage score, SETFA” value is given as 5 and the “Pre-emergence herbicidal damage score, ZEAMX” value stood at 3.
`CC1=C(Cl)C(=O)N(c2noc(C(C)(C)C)c2C#N)C1OC(=O)C(C)(C)C` (centres unmarked) [A95]: the melting point fell in the range of 95 to 97 °C. In addition, in data set [1], the “ABUTH … application post-emergence” value is 5; the “ALOMY … application post-emergence” value is on record as 5; the “AMARE … application post-emergence” value worked out at 5; the “ECHCG … application post-emergence” value came to 5. Also, in data set [1], the “SETFA (Setaria faberi) damage score” value came out at 5 and the “ZEAMX (Zea mays) damage score” value stood at 3. Further, in data set [2], the “Pre-emergence herbicidal damage score, ABUTH” value worked out at 4; the “Pre-emergence herbicidal damage score, ALOMY” value turned out to be 4; the “Pre-emergence herbicidal damage score, AMARE” value came to 5; the “Pre-emergence herbicidal damage score, ECHCG” value came out at 5. For the same compound, in data set [2], the “Pre-emergence herbicidal damage score, SETFA” value is given as 5 and the “Pre-emergence herbicidal damage score, ZEAMX” value amounted to 3.
Consider `CCCC1=C(Cl)C(=O)N(c2noc(C(C)(C)C)c2C#N)C1OC(=O)CC` (centres unmarked) [A100], for which the melting point lay within 69 to 71 °C. Further, in data set [1], the “ABUTH … application post-emergence” value is 5; the “ALOMY … application post-emergence” value stood at 5; the “AMARE … application post-emergence” value amounted to 5; the “ECHCG … application post-emergence” value was determined as 5. In addition, in data set [1], the “SETFA (Setaria faberi) damage score” value came out at 5 and the “ZEAMX (Zea mays) damage score” value is recorded as 5. In data set [2], the “Pre-emergence herbicidal damage score, ABUTH” value was found to be 5; the “Pre-emergence herbicidal damage score, ALOMY” value is 4; the “Pre-emergence herbicidal damage score, AMARE” value came out at 5; the “Pre-emergence herbicidal damage score, ECHCG” value was determined as 5. In data set [2], the “Pre-emergence herbicidal damage score, SETFA” value stood at 5 and the “Pre-emergence herbicidal damage score, ZEAMX” value is 3.
In turn, `CC1=C(Cl)C(=O)N(c2cc(C(C)(C)C)on2)C1` [A101] returned a melting point of 138 to 139 °C. Also, in data set [1], the “ABUTH … application post-emergence” value is recorded as 5; the “ALOMY … application post-emergence” value turned out to be 5; the “AMARE … application post-emergence” value was determined as 5; the “ECHCG … application post-emergence” value came to 5. Besides, in data set [1], the “SETFA (Setaria faberi) damage score” value is 5 and the “ZEAMX (Zea mays) damage score” value is given as 4. Also, in data set [2], the “Pre-emergence herbicidal damage score, ABUTH” value is 5; the “Pre-emergence herbicidal damage score, ALOMY” value is 4; the “Pre-emergence herbicidal damage score, AMARE” value was 5; the “Pre-emergence herbicidal damage score, ECHCG” value was found to be 5. Further, in data set [2], the “Pre-emergence herbicidal damage score, SETFA” value is reported as 4 and the “Pre-emergence herbicidal damage score, ZEAMX” value came to 3.
Take `CC1=C(Cl)C(=O)N(c2noc(C(C)C)c2C#N)C1` [A103]: the melting point was 112 to 114 °C. In data set [1], the “ABUTH … application post-emergence” value is listed as 5; the “ALOMY … application post-emergence” value stood at 4; the “AMARE … application post-emergence” value is 5; the “ECHCG … application post-emergence” value stood at 5. In data set [1], the “SETFA (Setaria faberi) damage score” value worked out at 5 and the “ZEAMX (Zea mays) damage score” value amounted to 3. For the same compound, in data set [2], the “Pre-emergence herbicidal damage score, ABUTH” value is on record as 5; the “Pre-emergence herbicidal damage score, ALOMY” value is on record as 4; the “Pre-emergence herbicidal damage score, AMARE” value is recorded as 5; the “Pre-emergence herbicidal damage score, ECHCG” value turned out to be 5. Besides, in data set [2], the “Pre-emergence herbicidal damage score, SETFA” value was 5 and the “Pre-emergence herbicidal damage score, ZEAMX” value was determined as 2.
The compound `CC1=C(Cl)C(=O)N(c2cc(C(C)(C)C#N)on2)C1` [A104] gave a melting point of 141 to 143 °C. In data set [1], the “ABUTH … application post-emergence” value is reported as 5; the “ALOMY … application post-emergence” value was found to be 5; the “AMARE … application post-emergence” value is 5; the “ECHCG … application post-emergence” value is given as 5. Besides, in data set [1], the “SETFA (Setaria faberi) damage score” value stood at 5 and the “ZEAMX (Zea mays) damage score” value is 5. Further, in data set [2], the “Pre-emergence herbicidal damage score, ABUTH” value is 5; the “Pre-emergence herbicidal damage score, ALOMY” value was 4; the “Pre-emergence herbicidal damage score, AMARE” value amounted to 5; the “Pre-emergence herbicidal damage score, ECHCG” value is listed as 5. Also, in data set [2], the “Pre-emergence herbicidal damage score, SETFA” value came to 5 and the “Pre-emergence herbicidal damage score, ZEAMX” value worked out at 2.

The term melting point denotes the temperature of the solid-liquid transition.
